Test: Solubility of the precursor in chloroform, toluene and THF (solution left to stand, precipitation observed)
Type: physicochemical
Conditions: toluene and THF, 1.0% by mass and 5.0% by mass, filtered, left to stand over night at room temperature
Description: Precursor 1 synthesized in Example 1 was dissolved respectively in chloroform, toluene and THF so as to be contained therein in concentrations of 1.0% by mass and 5.0% by mass, and then passed through a filter so as to prepare each solution.
The evaluation criteria of the solubility in Table 1 are as follows:
A: No precipitation of a solute was observed when a precursor was dissolved in each solution so as to be contained in a concentration of 5% by mass, and then left to stand for 12 hours at a room temperature.
B: No precipitation of a solute was observed when a precursor was dissolved in each solution so as to be contained in a concentration of 1% by mass, and then left to stand for 12 hours at a room temperature.
C: Precipitation of a solute was observed when a precursor was dissolved in each solution so as to be contained in a concentration of 1% by mass, and then left to stand for 12 hours at a room temperature.
With `CCCCCCC(CCCC)C(=O)OC(CC)c1ccc(-c2ccc3c(c2)sc2c4ccc(-c5ccc(C(CC)OC(=O)C(CCCC)CCCCCC)s5)cc4sc32)s1` (stereo not shown) [Example 13] the “solute separation from solution” value was “solute separation was not observed at all in any solvent and concentration”.

Same assay, conditions: toluene, THF, 1% or 5% by mass, left to stand 12 hours at room temperature
In the case of `CCCCCCC(CCCC)C(=O)OC(CC)c1ccc(-c2ccc3c(c2)sc2c4ccc(-c5ccc(C(CC)OC(=O)C(CCCC)CCCCCC)cc5)cc4sc32)cc1` (stereo not shown) [Example 14], the Solubility is reported as “A (No precipitation of a solute was observed when a precursor was dissolved in each solution so as to be contained in a concentration of 5% by mass, and then left to stand for 12 hours at a room temperature.)”.
In the case of `c1ccc(-c2ccc3c(c2)sc2c4ccc(-c5ccccc5)cc4sc32)cc1` [Comparative Example 1, 2,7-diphenyl [1]benzothieno[3,2-b][1]benzothiophene, reference compound], the Solubility is reported as “C (Precipitation of a solute was observed when a precursor was dissolved in each solution so as to be contained in a concentration of 1% by mass, and then left to stand for 12 hours at a room temperature.)”.
With `CCCCCCC(CCCC)C(=O)OC(CC)c1ccc(-c2ccc(-c3ccc4c(c3)sc3c5ccc(-c6ccc(-c7ccc(C(CC)OC(=O)C(CCCC)CCCCCC)s7)s6)cc5sc43)s2)s1` (stereo not shown) [Example 15] the Solubility was “A (No precipitation of a solute was observed when a precursor was dissolved in each solution so as to be contained in a concentration of 5% by mass, and then left to stand for 12 hours at a room temperature.)”.
In the case of `CCCCSC(=S)OC(CC)c1ccc(-c2ccc3c(c2)sc2c4ccc(-c5ccc(C(CC)OC(=S)SCCCC)s5)cc4sc32)s1` (stereo not shown) [Example 16], the Solubility is reported as “A (No precipitation of a solute was observed when a precursor was dissolved in each solution so as to be contained in a concentration of 5% by mass, and then left to stand for 12 hours at a room temperature.)”.
With `CCCCCCCCc1ccc2c(c1)sc1c3ccc(CCCCCCCC)cc3sc21` [Comparative Example 2, 2,7-dioctyl[1]benzothieno[3,2-b][1]benzothiophene, reference compound] the Solubility was “B (No precipitation of a solute was observed when a precursor was dissolved in each solution so as to be contained in a concentration of 1% by mass, and then left to stand for 12 hours at a room temperature.)”.
For `CCCCCCC(CCCC)C(=O)OC(CC)c1ccc(-c2ccc3c(c2)sc2c4ccc(-c5ccc(C(CC)OC(=O)C(CCCC)CCCCCC)s5)cc4sc32)s1` (stereo not shown) [Example 13], the Solubility was “A (No precipitation of a solute was observed when a precursor was dissolved in each solution so as to be contained in a concentration of 5% by mass, and then left to stand for 12 hours at a room temperature.)”.
